Data reported in ChEMBL document CHEMBL5137005, “Development of Dual Inhibitors Targeting Epidermal Growth Factor Receptor in Cancer Therapy” (J Med Chem, 2022).

Legend:
[1] = biological target: Receptor tyrosine-protein kinase erbB-2 (Homo sapiens, UniProt P04626); test: Inhibition of HER2 (unknown origin)
Tubulin [2] = test: Inhibition of tubulin polymerization (unknown origin); type: protein-complex assay, Homo sapiens
[3] = biological target: Nuclear factor NF-kappa-B complex (Homo sapiens, UniProt P19838+Q00653+Q04206); test: Inhibition of NF-kappaB (unknown origin); type: protein-complex assay
Sequence of Nuclear factor NF-kappa-B complex (P19838 1-433 limits assumed): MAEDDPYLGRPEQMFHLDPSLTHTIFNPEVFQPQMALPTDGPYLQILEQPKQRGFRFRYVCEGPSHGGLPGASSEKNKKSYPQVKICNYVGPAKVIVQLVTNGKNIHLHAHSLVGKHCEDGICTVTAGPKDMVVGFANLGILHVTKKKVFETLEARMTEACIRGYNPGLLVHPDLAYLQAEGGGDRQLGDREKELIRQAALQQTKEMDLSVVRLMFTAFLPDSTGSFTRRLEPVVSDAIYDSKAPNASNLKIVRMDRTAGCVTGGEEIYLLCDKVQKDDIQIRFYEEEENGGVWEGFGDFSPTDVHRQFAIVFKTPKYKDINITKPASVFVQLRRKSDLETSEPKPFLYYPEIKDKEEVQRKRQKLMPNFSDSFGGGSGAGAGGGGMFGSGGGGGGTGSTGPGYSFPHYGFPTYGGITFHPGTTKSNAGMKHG
Sequence of Nuclear factor NF-kappa-B complex (Q00653 1-454 limits assumed): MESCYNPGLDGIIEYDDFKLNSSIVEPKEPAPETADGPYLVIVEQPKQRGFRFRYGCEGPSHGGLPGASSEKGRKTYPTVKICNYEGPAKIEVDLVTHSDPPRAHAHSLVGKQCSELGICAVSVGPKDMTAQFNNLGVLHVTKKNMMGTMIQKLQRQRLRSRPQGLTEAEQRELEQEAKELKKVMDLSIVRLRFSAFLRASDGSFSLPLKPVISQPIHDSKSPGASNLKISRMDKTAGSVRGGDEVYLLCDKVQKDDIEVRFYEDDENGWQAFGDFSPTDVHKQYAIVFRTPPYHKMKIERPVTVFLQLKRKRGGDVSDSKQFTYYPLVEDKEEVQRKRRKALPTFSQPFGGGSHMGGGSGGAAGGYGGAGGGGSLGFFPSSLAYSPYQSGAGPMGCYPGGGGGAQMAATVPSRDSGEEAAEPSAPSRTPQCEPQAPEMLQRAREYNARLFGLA
Sequence of Nuclear factor NF-kappa-B complex (Q04206 whole entry): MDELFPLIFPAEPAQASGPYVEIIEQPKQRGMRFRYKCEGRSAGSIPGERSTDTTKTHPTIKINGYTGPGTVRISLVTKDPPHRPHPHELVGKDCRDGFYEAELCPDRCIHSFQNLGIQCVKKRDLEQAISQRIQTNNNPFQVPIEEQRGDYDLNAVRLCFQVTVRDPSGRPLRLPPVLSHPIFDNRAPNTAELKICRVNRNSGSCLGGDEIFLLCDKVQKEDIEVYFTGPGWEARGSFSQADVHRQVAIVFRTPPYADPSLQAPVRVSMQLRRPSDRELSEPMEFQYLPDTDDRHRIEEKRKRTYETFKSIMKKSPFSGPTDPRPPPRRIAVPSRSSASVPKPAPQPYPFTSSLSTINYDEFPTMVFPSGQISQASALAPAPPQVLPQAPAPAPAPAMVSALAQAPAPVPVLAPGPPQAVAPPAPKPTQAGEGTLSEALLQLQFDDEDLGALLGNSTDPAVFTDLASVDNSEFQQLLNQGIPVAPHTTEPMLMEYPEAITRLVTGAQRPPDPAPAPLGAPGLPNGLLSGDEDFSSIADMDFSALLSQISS

[4] = biological target: T1, Epidermal growth factor receptor (Homo sapiens, UniProt P00533); test: Inhibition of EGFR (unknown origin) by microplate reader
T1 sequence (P00533 whole entry): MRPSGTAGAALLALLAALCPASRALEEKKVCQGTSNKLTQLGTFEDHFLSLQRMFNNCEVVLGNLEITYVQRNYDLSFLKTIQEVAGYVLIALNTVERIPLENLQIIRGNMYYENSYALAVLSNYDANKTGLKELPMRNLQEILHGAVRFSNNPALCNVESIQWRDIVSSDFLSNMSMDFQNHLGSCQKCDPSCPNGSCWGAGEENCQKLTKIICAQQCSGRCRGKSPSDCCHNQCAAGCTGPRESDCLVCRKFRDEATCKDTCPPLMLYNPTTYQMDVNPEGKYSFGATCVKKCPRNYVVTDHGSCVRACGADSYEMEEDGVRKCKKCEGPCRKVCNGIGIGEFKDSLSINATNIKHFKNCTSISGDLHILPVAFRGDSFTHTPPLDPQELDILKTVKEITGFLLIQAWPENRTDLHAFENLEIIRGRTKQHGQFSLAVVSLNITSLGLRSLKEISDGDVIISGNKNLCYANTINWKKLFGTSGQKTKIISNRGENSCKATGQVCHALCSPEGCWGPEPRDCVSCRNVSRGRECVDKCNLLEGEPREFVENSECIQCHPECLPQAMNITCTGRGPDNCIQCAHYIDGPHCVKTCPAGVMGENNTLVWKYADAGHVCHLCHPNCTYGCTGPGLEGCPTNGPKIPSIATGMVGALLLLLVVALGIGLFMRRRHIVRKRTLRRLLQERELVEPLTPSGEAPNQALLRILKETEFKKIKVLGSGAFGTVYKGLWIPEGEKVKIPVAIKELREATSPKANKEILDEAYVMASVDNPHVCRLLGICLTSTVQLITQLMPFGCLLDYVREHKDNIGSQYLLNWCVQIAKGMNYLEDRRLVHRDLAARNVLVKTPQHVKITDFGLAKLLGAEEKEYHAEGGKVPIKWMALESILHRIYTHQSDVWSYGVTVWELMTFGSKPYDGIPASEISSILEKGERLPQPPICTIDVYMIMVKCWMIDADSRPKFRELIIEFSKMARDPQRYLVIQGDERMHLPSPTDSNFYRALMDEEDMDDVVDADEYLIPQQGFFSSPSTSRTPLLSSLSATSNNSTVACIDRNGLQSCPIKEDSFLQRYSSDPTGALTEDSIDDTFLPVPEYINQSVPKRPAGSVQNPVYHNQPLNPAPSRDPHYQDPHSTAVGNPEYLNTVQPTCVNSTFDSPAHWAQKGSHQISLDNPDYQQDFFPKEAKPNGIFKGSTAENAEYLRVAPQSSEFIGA

Tubulin [5] = test: Inhibition of tubulin polymerization (unknown origin) by measuring absorbance; type: protein-complex assay, Homo sapiens
A549 = test: Growth inhibition of human A549 cells; type: functional
A-431 [6] = test: Growth inhibition of human A-431 cells; type: functional
MCF7 [7] = test: Growth inhibition of human MCF7 cells; type: functional
[8] = biological target: T1, Epidermal growth factor receptor; test: Inhibition of EGFR (unknown origin)
MDA-MB-231 = test: Growth inhibition of human MDA-MB-231 cells incubated for 72 hrs by MTT assay; type: functional
MDA-MB-468 = test: Growth inhibition of human MDA-MB-468 cells incubated for 72 hrs by MTT assay; type: functional
HT-29 = test: Growth inhibition of human HT-29 cells incubated for 72 hrs by MTT assay; type: functional
KG-1 = test: Growth inhibition of human KG-1 cells incubated for 72 hrs by MTT assay; type: functional
Histone deacetylase 1 [9] = biological target: T2, Histone deacetylase 1 (Homo sapiens, UniProt Q13547); test: Inhibition of human recombinant HDAC1 expressed in insect High5 cells using baculovirus expression system using Ac-Lys-Tyr-Lys (epsilon-acetyl)-AMC as substrate incubated for 24 hrs by multilabel plate reader method; set-up: species or system BTI-TN-5B1-4
T2 sequence (Q13547 whole entry): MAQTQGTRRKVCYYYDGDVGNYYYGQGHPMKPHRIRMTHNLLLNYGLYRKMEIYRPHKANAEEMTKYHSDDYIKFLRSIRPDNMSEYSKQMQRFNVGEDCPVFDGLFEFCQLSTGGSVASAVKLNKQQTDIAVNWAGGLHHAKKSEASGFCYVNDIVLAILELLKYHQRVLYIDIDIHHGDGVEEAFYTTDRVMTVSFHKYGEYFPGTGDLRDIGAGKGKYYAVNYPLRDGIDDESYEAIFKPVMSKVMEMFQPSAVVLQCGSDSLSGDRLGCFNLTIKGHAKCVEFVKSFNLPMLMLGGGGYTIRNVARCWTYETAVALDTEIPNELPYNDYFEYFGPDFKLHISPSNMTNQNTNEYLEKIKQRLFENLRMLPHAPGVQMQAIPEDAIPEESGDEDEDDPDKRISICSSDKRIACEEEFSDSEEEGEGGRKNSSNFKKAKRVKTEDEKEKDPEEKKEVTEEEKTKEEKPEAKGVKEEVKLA

Histone deacetylase 3 = Histone deacetylase 3 (Homo sapiens, UniProt O15379); test: Inhibition of human recombinant HDAC3 expressed in insect High5 cells using baculovirus expression system using Ac-Lys-Tyr-Lys (epsilon-acetyl)-AMC as substrate incubated for 24 hrs by multilabel plate reader method; set-up: species or system BTI-TN-5B1-4
Sequence of Histone deacetylase 3 (O15379 whole entry): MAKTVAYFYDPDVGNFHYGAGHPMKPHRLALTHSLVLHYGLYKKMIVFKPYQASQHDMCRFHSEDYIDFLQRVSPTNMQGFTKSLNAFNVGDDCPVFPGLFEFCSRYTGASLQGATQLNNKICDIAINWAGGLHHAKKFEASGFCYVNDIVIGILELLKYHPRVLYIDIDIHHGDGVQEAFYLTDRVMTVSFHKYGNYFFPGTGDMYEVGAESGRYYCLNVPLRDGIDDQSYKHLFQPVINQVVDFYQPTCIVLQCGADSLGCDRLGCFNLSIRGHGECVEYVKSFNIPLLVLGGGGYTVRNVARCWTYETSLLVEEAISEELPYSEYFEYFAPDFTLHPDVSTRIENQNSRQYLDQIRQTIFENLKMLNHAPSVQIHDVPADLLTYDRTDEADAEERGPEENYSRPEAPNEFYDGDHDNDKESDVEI

[10] = biological target: T3, Protein deacetylase HDAC6 (Homo sapiens, UniProt Q9UBN7); test: Inhibition of human recombinant HDAC6 expressed in insect High5 cells using baculovirus expression system using Boc-Lys (epsilon-acetyl)-AMC as substrate incubated for 3 hrs by multilabel plate reader method; set-up: species or system BTI-TN-5B1-4
T3 sequence (Q9UBN7 whole entry): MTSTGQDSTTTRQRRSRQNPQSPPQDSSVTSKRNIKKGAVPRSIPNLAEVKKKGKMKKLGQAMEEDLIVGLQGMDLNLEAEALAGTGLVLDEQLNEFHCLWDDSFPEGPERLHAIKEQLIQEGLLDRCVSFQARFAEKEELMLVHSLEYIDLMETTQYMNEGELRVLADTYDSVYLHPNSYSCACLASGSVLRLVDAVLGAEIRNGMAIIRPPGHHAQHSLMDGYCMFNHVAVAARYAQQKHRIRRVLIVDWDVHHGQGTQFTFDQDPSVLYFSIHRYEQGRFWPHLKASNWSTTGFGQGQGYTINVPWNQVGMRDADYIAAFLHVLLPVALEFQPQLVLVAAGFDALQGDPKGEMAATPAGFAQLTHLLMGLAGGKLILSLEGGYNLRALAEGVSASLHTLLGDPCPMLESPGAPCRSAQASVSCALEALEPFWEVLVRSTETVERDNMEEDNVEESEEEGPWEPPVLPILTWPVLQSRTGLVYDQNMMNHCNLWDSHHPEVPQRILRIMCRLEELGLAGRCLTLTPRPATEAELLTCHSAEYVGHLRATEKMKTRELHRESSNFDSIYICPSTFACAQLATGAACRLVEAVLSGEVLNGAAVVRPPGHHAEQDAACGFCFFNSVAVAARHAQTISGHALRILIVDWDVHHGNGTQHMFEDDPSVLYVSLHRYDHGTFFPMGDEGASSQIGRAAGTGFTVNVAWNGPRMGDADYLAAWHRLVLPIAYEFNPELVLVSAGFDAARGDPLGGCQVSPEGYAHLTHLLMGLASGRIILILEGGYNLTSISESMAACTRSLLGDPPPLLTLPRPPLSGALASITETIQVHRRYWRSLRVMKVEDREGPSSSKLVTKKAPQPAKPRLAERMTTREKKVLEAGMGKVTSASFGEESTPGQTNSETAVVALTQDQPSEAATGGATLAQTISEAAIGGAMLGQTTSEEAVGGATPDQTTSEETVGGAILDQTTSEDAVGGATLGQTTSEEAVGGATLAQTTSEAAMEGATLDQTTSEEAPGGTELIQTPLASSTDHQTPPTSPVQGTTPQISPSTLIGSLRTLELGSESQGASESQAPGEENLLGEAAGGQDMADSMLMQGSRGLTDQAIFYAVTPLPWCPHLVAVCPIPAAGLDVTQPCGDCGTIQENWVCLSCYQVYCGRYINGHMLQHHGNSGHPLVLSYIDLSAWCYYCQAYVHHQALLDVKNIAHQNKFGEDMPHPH

[11] = biological target: T1, Epidermal growth factor receptor; test: Inhibition of EGFR (unknown origin) using synthetic biotinylated peptide as substrate […] by microplate reader method relative to control
Histone deacetylase = test: Inhibition of HDAC in human HeLa cell nuclear extract using fluorogenic Boc-Lys(acetyl)-AMC as substrate preincubated for 5 mins followed by addition of substrate measured after 20 mins by microplate reader; type: cell-free
A-431 [12] = test: Antiproliferative activity against human A-431 cells overexpressing wildtype EGFR assessed as cell growth inhibition incubated for 24 hrs; type: functional
NCI-H1975 = test: Antiproliferative activity against human H1975 cells overexpressing EGFR T790M/L858R assessed as cell growth inhibition incubated for 24 hrs; type: functional
MCF7 [13] = test: Antiproliferative activity against human MCF7 cells overexpressing HER2 assessed as cell growth inhibition incubated for 24 hrs; type: functional
Histone deacetylase 1 [14] = biological target: T2, Histone deacetylase 1; test: Inhibition of HDAC1 (unknown origin)
[15] = biological target: T3, Protein deacetylase HDAC6; test: Inhibition of HDAC6 (unknown origin)
[16] = biological target: Fibroblast growth factor receptor 4 (Homo sapiens, UniProt P22455); test: Inhibition of FGFR4 (unknown origin) using biotin as substrate incubated for 2 hrs by HTRF assay
[17] = biological target: T1, Epidermal growth factor receptor; test: Inhibition of EGFR (unknown origin) using biotin as substrate incubated for 2 hrs by HTRF assay

Sequence of Receptor tyrosine-protein kinase erbB-2 (P04626 whole entry): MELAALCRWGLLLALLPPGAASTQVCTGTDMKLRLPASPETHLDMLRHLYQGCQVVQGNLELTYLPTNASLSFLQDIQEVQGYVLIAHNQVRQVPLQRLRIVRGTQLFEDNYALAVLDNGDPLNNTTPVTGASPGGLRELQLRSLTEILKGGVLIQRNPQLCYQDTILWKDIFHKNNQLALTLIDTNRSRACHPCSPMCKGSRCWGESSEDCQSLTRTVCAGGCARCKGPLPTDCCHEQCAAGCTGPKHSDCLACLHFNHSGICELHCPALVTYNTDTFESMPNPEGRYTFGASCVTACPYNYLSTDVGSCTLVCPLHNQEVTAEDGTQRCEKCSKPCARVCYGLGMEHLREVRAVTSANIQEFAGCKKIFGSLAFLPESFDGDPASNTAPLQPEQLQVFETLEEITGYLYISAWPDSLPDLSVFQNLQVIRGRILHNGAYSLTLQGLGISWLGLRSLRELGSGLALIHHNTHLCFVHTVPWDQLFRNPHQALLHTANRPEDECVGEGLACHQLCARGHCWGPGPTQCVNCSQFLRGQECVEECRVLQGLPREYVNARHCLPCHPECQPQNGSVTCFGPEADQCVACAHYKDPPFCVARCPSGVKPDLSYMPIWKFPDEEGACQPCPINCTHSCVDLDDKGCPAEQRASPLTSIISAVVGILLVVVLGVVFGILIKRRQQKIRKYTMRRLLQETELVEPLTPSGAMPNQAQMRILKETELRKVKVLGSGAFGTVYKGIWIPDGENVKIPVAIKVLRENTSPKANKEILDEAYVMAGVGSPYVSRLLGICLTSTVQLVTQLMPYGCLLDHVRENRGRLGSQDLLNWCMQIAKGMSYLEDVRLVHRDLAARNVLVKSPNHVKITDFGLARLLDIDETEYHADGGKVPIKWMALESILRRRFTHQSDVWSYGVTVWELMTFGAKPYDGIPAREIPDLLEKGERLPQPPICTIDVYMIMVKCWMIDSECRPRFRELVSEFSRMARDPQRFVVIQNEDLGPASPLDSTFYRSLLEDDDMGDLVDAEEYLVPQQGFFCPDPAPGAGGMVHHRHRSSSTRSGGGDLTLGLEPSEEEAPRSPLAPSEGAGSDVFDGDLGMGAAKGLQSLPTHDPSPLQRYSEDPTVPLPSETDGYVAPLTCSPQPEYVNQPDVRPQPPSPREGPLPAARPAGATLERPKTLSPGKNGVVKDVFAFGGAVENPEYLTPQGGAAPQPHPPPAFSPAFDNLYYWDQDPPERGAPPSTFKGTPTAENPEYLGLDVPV

Compound: CCN1CCN(Cc2ccc(-c3cc4c(N[C@H](C)c5ccccc5)ncnc4[nH]3)cc2)CC1 [AEE-788]
- IC50 [1]: 6 nM

Compound: COc1cc(Nc2ncnc3cc(-c4ccc(C)cc4)sc23)cc(OC)c1OC
- IC50 (Tubulin [2]): 710 nM

Compound: Fc1cc(F)cc(NC(=S)Nc2ccc3ncnc(Nc4cccc(Cl)c4)c3c2)c1
- IC50 [3]: 300 nM

Compound: CCOCCSc1nc(-c2ccccc2Cl)nn1CCOCC
- IC50 [4]: 86.7 nM
- IC50 (Tubulin [5]): 10700 nM

Compound: O=C(Nc1ccc2ncnc(Nc3cccc(Br)c3)c2c1)c1ccc(C(F)(F)F)cc1O
- GI50 (A549): 1640 nM
- GI50 (A-431 [6]): 670 nM
- GI50 (MCF7 [7]): 490 nM

Compound: O=C(/C=C\c1ccc(OC(F)(F)F)cc1)c1ccc(Br)c2cc(-c3ccc(F)cc3)oc12
- IC50 [8]: 120 nM

Compound: Cc1c(NC(=O)OC[C@@H]2COCCN2)cn2ncnc(Nc3ccc4c(cnn4Cc4cccc(F)c4)c3)c12 [AC-480]
- IC50 [1]: 30 nM

Compound: S=C(NCc1ccccc1)Nc1ccc2ncnc(Nc3cccc(Br)c3)c2c1
- IC50 [3]: 4100 nM

Compound: COc1cc(NC(=O)CCCCCCC(=O)NO)ccc1Nc1nccc(-c2cn(C)c3ccccc23)n1
- GI50 (MDA-MB-231): 600 nM
- GI50 (MDA-MB-468): 230 nM
- GI50 (HT-29): 790 nM
- GI50 (KG-1): 240 nM

Compound: COc1cc2ncnc(Nc3cccc(/C=C/C(=O)NO)c3)c2cc1OCCCN1CCOCC1
- IC50 (Histone deacetylase 1 [9]): 160 nM
- IC50 (Histone deacetylase 3): 180 nM
- IC50 [10]: 560 nM
- inhibition [11]: 9.7%

Compound: FC(F)(F)c1csc(NC(=S)Nc2ccc3ncnc(Nc4cccc(Cl)c4)c3c2)n1
- IC50 [3]: 600 nM

Compound: COc1ccc(/C=C\C(=O)c2ccc(Br)c3cc(-c4ccc(F)cc4)oc23)cc1
- IC50 [8]: 90 nM

Compound: Cn1cc(-c2ccnc(Nc3ccc(C(=O)NCCCCCCC(=O)NO)cc3)n2)c2ccccc21
- IC50 (Histone deacetylase): 105 nM

Compound: COc1ccc(N(C)c2nc(N)nc3c(Cc4ccccc4)c[nH]c23)cc1
- IC50 (Tubulin [2]): > 20000 nM

Compound: CC(C)(O)CC(=O)NCCc1ccc2ncnc(Nc3ccc(Oc4cccc(C(F)(F)F)c4)c(Cl)c3)c2c1
- GI50 (A-431 [12]): 41 nM
- GI50 (NCI-H1975): 127 nM
- GI50 (MCF7 [13]): 94 nM

Compound: O=C(CCCCn1cc(-c2ccc3ncnc(Nc4ccccc4F)c3c2)nn1)NO
- IC50 [8]: 10.3 nM
- IC50 (Histone deacetylase 1 [14]): 1.1 nM
- IC50 [15]: 4.3 nM

Compound: O=C(Nc1ccccc1C(=O)N/N=C/c1ccc(O)cc1O)c1ccco1
- IC50 [4]: 85.4 nM
- IC50 (Tubulin [2]): 87.6 nM

Compound: COc1cc2ncnc(Oc3ccc(NC(=O)Nc4cccc(C(F)(F)F)c4)c4ccccc34)c2cc1OC
- IC50 [16]: 86.2 nM
- IC50 [17]: 83.9 nM

Compound: NS(=O)(=O)c1ccc(NC(=O)c2ccccc2NC(=O)c2ccco2)cc1
- IC50 [4]: 31.2 nM
- IC50 (Tubulin [2]): 108 nM
